Measurements as given in patent US6479435B1, “Diaryl ethers and processes for their preparation and herbicidal and desiccant compositions containing them” (ISK Americas Incorporated, priority 1997, dated 2002).

Experiments:
Assay type in all cases: in vivo
[1] = test system: Johnsongrass (Sorghum halepense, SORHA); assay: Pre-emerge greenhouse herbicide test, phytotoxicity rating; conditions: 14 days after application, rating scale 0-100
Method in brief: (§1)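 Visual 0–100 injury rating (100 = all plants dead) taken 14 days after treatment. Rates of 125–1000 g ai/ha in acetone, 187 l/ha, were sprayed onto soil one day post-sowing; pots were surface-watered to incorporate, then bottom-watered.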

[2] = test system: barnyardgrass (Echinochloa crusgalli, ECHCG); assay: as above; conditions: 14 days after application, rating scale 0-100
Method in brief: as §1

[3] = test system: common ragweed (Ambrosia artemisiifolia L., AMBEL); assay: as above; conditions: 14 days after application, rating scale 0-100
Method in brief: as §1

[4] = test system: green foxtail (Setaria viridis, SETVI); assay: as above; conditions: 14 days after application, rating scale 0-100
Method in brief: as §1

[5] = test system: ivyleaf morningglory (Ipomoea hederacea, IPOHE); assay: as above; conditions: 14 days after application, rating scale 0-100
Method in brief: as §1

[6] = test system: lambsquarters (Chenopodium album, CHEAL); assay: as above; conditions: 14 days after application, rating scale 0-100
Method in brief: as §1

[7] = test system: large crabgrass (Digitaria sanguinalis, DIGSA); assay: as above; conditions: 14 days after application, rating scale 0-100
Method in brief: as §1

[8] = test system: redroot pigweed (Amaranthus retroflexus, AMARE); assay: as above; conditions: 14 days after application, rating scale 0-100
Method in brief: as §1

[9] = test system: sicklepod (Cassia obtusifolia, CASOB); assay: as above; conditions: 14 days after application, rating scale 0-100
Method in brief: as §1

[10] = test system: velvetleaf (Abutilon theophrasti, ABUTH); assay: as above; conditions: 14 days after application, rating scale 0-100
Method in brief: as §1

[11] = test system: field corn (Zea mays L., var. Dekalb 535, CORN); assay: Pre-emerge greenhouse test, crop damage rating; conditions: 14 days after application, rating scale 0-100
Method in brief: as §1

[12] = test system: upland rice (Oryza sp., var.Tebonnet, RICE); assay: Pre-emerge greenhouse test, crop damage rating; conditions: 14 days after application, rating scale 0-100
Method in brief: as §1

[13] = test system: soybean (Glycine max L., var. Pella 86, SOY); assay: Pre-emerge greenhouse test, crop damage rating; conditions: 14 days after application, rating scale 0-100
Method in brief: as §1

[14] = test system: common ragweed (Ambrosia artemisiifolia L., AMBEL); assay: Post-emerge greenhouse herbicide test, phytotoxicity rating; conditions: 14 days after application
Method in brief: (§2)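 Scores use a 0 (no damage) to 100 (complete kill) scale, taken 14 days after a foliar spray. Acetone solutions with 0.25% v/v non-ionic surfactant were applied by track sprayer at 187 l/ha and 63-1000 g ai/ha to bottom-watered 2-3 leaf plants.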

[15] = test system: Johnsongrass (Sorghum halepense, SORHA); assay: as above; conditions: 14 days after application
Method in brief: as §2

[16] = test system: barnyardgrass (Echinochloa crusgalli, ECHCG); assay: as above; conditions: 14 days after application
Method in brief: as §2

[17] = test system: green foxtail (Setaria viridis, SETVI); assay: as above; conditions: 14 days after application
Method in brief: as §2

[18] = test system: ivyleaf morningglory (Ipomoea hederacea, IPOHE); assay: as above; conditions: 14 days after application
Method in brief: as §2

[19] = test system: lambsquarters (Chenopodium album, CHEAL); assay: as above; conditions: 14 days after application
Method in brief: as §2

[20] = test system: large crabgrass (Digitaria sanguinalis, DIGSA); assay: as above; conditions: 14 days after application
Method in brief: as §2

[21] = test system: redroot pigweed (Amaranthus retroflexus, AMARE); assay: as above; conditions: 14 days after application
Method in brief: as §2

[22] = test system: velvetleaf (Abutilon theophrasti, ABUTH); assay: as above; conditions: 14 days after application
Method in brief: as §2

[23] = test system: field corn (Zea mays L., var. Dekalb 535, CORN); assay: Post-emerge greenhouse test, crop damage rating; conditions: 14 days after application
Method in brief: as §2

[24] = test system: upland rice (Oryza sp., var.Tebonnet, RICE); assay: Post-emerge greenhouse test, crop damage rating; conditions: 14 days after application
Method in brief: as §2

[25] = test system: soybean (Glycine max L., var. Pella 86, SOY); assay: Post-emerge greenhouse test, crop damage rating; conditions: 14 days after application
Method in brief: as §2

Cn1nc(-c2cc(Oc3ncccc3C(F)(F)F)c(Cl)cc2F)c(Cl)c1C(F)(F)F [Compound 1-2]
10: crop damage rating CORN ([11]; 125 g ai/ha) | crop damage rating SOY ([13]; 500 g ai/ha) | CORN crop damage rating (0-100) ([23]; 500 g al/ha) | SOY crop damage rating (0-100) ([25]; 63 g al/ha)
60: phytotoxicity rating IPOHE ([5]; 500 g ai/ha)
40: phytotoxicity rating DIGSA ([7]; 125 g ai/ha) | crop damage rating RICE ([12]; 500 g ai/ha) | SORHA phytotoxicity rating (0-100) ([15]; 500 g al/ha) | SETVI phytotoxicity rating (0-100) ([17]; 500 g al/ha)
80: phytotoxicity rating AMBEL ([3]; 125 g ai/ha) | phytotoxicity rating AMBEL ([3]; 500 g ai/ha) | phytotoxicity rating AMARE ([8]; 125 g ai/ha) | phytotoxicity rating CASOB ([9]; 125 g ai/ha) | ECHCG phytotoxicity rating (0-100) ([16]; 500 g al/ha) | AMARE phytotoxicity rating (0-100) ([21]; 63 g al/ha)
20: phytotoxicity rating ECHCG ([2]; 125 g ai/ha) | SORHA phytotoxicity rating (0-100) ([15]; 63 g al/ha)
50: phytotoxicity rating SORHA ([1]; 500 g ai/ha) | phytotoxicity rating ECHCG ([2]; 500 g ai/ha) | phytotoxicity rating CHEAL ([6]; 125 g ai/ha) | DIGSA phytotoxicity rating (0-100) ([20]; 500 g al/ha) | SOY crop damage rating (0-100) ([25]; 500 g al/ha)
100: phytotoxicity rating AMARE ([8]; 500 g ai/ha) | CHEAL phytotoxicity rating (0-100) ([19]; 500 g al/ha) | AMARE phytotoxicity rating (0-100) ([21]; 500 g al/ha) | ABUTH phytotoxicity rating (0-100) ([22]; 500 g al/ha)
0: phytotoxicity rating IPOHE ([5]; 125 g ai/ha) | phytotoxicity rating CASOB ([9]; 500 g ai/ha) | phytotoxicity rating ABUTH ([10]; 125 g ai/ha) | crop damage rating SOY ([13]; 125 g ai/ha) | ECHCG phytotoxicity rating (0-100) ([16]; 63 g al/ha) | SETVI phytotoxicity rating (0-100) ([17]; 63 g al/ha) | DIGSA phytotoxicity rating (0-100) ([20]; 63 g al/ha) | CORN crop damage rating (0-100) ([23]; 63 g al/ha) | RICE crop damage rating (0-100) ([24]; 63 g al/ha) | RICE crop damage rating (0-100) ([24]; 500 g al/ha)
95: phytotoxicity rating DIGSA ([7]; 500 g ai/ha)
99: phytotoxicity rating SETVI ([4]; 500 g ai/ha) | phytotoxicity rating CHEAL ([6]; 500 g ai/ha)
30: phytotoxicity rating SORHA ([1]; 125 g ai/ha) | crop damage rating RICE ([12]; 125 g ai/ha) | AMBEL phytotoxicity rating (0-100) ([14]; 63 g al/ha) | IPOHE phytotoxicity rating (0-100) ([18]; 63 g al/ha) | ABUTH phytotoxicity rating (0-100) ([22]; 63 g al/ha)
90: phytotoxicity rating SETVI ([4]; 125 g ai/ha) | crop damage rating CORN ([11]; 500 g ai/ha) | AMBEL phytotoxicity rating (0-100) ([14]; 500 g al/ha) | IPOHE phytotoxicity rating (0-100) ([18]; 500 g al/ha)
70: phytotoxicity rating ABUTH ([10]; 500 g ai/ha) | CHEAL phytotoxicity rating (0-100) ([19]; 63 g al/ha)

N#Cc1cccnc1Oc1cc(-n2nnn(CCCF)c2=O)c(Cl)cc1Cl [Compound 6-5]
100: phytotoxicity rating SETVI ([4]; 500 g ai/ha) | phytotoxicity rating CHEAL ([6]; 500 g ai/ha) | phytotoxicity rating AMARE ([8]; 500 g ai/ha)
20: crop damage rating CORN ([11]; 125 g ai/ha) | crop damage rating CORN ([11]; 500 g ai/ha) | crop damage rating RICE ([12]; 125 g ai/ha) | SORHA phytotoxicity rating (0-100) ([15]; 500 g al/ha) | CHEAL phytotoxicity rating (0-100) ([19]; 63 g al/ha) | ABUTH phytotoxicity rating (0-100) ([22]; 500 g al/ha) | RICE crop damage rating (0-100) ([24]; 63 g al/ha) | SOY crop damage rating (0-100) ([25]; 63 g al/ha)
10: crop damage rating RICE ([12]; 500 g ai/ha) | crop damage rating SOY ([13]; 125 g ai/ha) | DIGSA phytotoxicity rating (0-100) ([20]; 500 g al/ha)
90: phytotoxicity rating CHEAL ([6]; 125 g ai/ha) | phytotoxicity rating AMARE ([8]; 125 g ai/ha) | phytotoxicity rating ABUTH ([10]; 500 g ai/ha)
50: phytotoxicity rating AMBEL ([3]; 500 g ai/ha) | phytotoxicity rating CASOB ([9]; 500 g ai/ha)
70: phytotoxicity rating SORHA ([1]; 500 g ai/ha) | phytotoxicity rating DIGSA ([7]; 500 g ai/ha) | phytotoxicity rating CASOB ([9]; 125 g ai/ha)
0: phytotoxicity rating ECHCG ([2]; 125 g ai/ha) | phytotoxicity rating ECHCG ([2]; 500 g ai/ha) | phytotoxicity rating AMBEL ([3]; 125 g ai/ha) | phytotoxicity rating SETVI ([4]; 125 g ai/ha) | phytotoxicity rating ABUTH ([10]; 125 g ai/ha) | crop damage rating SOY ([13]; 500 g ai/ha) | AMBEL phytotoxicity rating (0-100) ([14]; 63 g al/ha) | AMBEL phytotoxicity rating (0-100) ([14]; 500 g al/ha) | SORHA phytotoxicity rating (0-100) ([15]; 63 g al/ha) | ECHCG phytotoxicity rating (0-100) ([16]; 63 g al/ha) | ECHCG phytotoxicity rating (0-100) ([16]; 500 g al/ha) | SETVI phytotoxicity rating (0-100) ([17]; 63 g al/ha) | IPOHE phytotoxicity rating (0-100) ([18]; 63 g al/ha) | IPOHE phytotoxicity rating (0-100) ([18]; 500 g al/ha) | DIGSA phytotoxicity rating (0-100) ([20]; 63 g al/ha) | ABUTH phytotoxicity rating (0-100) ([22]; 63 g al/ha) | CORN crop damage rating (0-100) ([23]; 63 g al/ha) | CORN crop damage rating (0-100) ([23]; 500 g al/ha)
40: phytotoxicity rating IPOHE ([5]; 125 g ai/ha) | phytotoxicity rating IPOHE ([5]; 500 g ai/ha) | AMARE phytotoxicity rating (0-100) ([21]; 63 g al/ha)
30: phytotoxicity rating SORHA ([1]; 125 g ai/ha) | phytotoxicity rating DIGSA ([7]; 125 g ai/ha) | SETVI phytotoxicity rating (0-100) ([17]; 500 g al/ha) | RICE crop damage rating (0-100) ([24]; 500 g al/ha) | SOY crop damage rating (0-100) ([25]; 500 g al/ha)
80: CHEAL phytotoxicity rating (0-100) ([19]; 500 g al/ha) | AMARE phytotoxicity rating (0-100) ([21]; 500 g al/ha)
